Assay results: patent publication US7514452B2, “2-furancarboxylic acid hydrazides and pharmaceutical compositions containing the same” (Dainippon Pharmaceutical Co., Ltd, priority 2002, dated 2009)

What was measured:
[1] = molecular target: glucagon receptor (Mus musculus, UniProt Q61606); experiment: Experiment for glucagon binding inhibition, mouse hepatic membrane (125I-glucagon); details: male ddY mouse hepatic membrane, 125I-glucagon 50 pM, 25° C. for 30 minutes; read-out: Glucagon binding inhibitory activity IC50 (nM) Mouse
How it was run: (§1)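 Liver membranes from male SD rats or male ddY mice were incubated with 125I-glucagon and compound for 30 min at 25 °C. Bound radioactivity was collected on filters washed with pH 7.2 Tris-HCl and counted by γ counter, in duplicate. IC50 was taken from a pseudo Hill plot.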

[2] = molecular target: glucagon receptor (Rattus norvegicus, UniProt P30082); experiment: Experiment for glucagon binding inhibition, rat hepatic membrane (125I-glucagon); details: male SD rat hepatic membrane, 125I-glucagon 50 pM, 25° C. for 30 minutes; read-out: Glucagon binding inhibitory activity IC50 (nM) Rat
How it was run: as §1

Chain of glucagon receptor (Mus musculus, UniProt Q61606) (Q61606 27-485): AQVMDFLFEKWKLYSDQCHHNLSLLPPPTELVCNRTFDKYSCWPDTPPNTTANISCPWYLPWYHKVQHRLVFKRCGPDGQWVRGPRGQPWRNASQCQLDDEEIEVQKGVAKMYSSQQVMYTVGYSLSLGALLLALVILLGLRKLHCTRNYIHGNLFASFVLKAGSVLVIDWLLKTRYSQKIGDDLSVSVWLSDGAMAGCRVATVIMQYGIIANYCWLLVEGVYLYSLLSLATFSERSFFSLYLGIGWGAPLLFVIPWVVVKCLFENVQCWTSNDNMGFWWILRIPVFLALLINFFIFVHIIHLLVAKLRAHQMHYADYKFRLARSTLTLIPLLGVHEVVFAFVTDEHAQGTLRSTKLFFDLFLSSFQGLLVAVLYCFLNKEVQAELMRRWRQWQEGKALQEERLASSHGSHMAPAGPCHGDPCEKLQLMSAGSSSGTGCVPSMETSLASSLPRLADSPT
Chain of glucagon receptor (Rattus norvegicus, UniProt P30082) (P30082 27-485): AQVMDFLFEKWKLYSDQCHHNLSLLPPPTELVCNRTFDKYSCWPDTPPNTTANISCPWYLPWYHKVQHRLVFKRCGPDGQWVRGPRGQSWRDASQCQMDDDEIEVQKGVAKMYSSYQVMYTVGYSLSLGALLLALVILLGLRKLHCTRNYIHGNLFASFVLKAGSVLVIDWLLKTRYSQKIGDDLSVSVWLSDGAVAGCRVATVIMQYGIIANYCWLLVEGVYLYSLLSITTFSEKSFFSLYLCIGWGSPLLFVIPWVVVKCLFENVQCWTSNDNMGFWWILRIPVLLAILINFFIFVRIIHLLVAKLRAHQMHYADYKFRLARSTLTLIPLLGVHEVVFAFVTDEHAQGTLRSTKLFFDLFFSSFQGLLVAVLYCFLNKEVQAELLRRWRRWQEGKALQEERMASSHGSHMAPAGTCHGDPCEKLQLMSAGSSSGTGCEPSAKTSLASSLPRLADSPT

Work on `CCCCCOc1cccc(-c2ccoc2C(=O)NNC(=O)c2ccc(O)c([N+](=O)[O-])c2)c1` [Example 182, 3-(3-Pentyloxyphenyl)-2-furancarboxylic acid 2-(4-hydroxy-3-nitrobenzoyl)hydrazide] yielded an IC50 [1] of 50 nM, an IC50 [2] of 49 nM and a melting point of 96 to 99 °C.
`CC(C)COc1cccc(-c2ccoc2C(=O)NNC(=O)c2ccc(O)c([N+](=O)[O-])c2)c1` [Example 183, 3-(3-Isobutoxyphenyl)-2-furancarboxylic acid 2-(4-hydroxy-3-nitrobenzoyl)hydrazide] gave an IC50 [1] of 34 nM, an IC50 [2] of 51 nM and a melting point of 98 to 100 °C.
Work on `CCCCCCOc1cccc(-c2ccoc2C(=O)NNC(=O)c2ccc(O)c([N+](=O)[O-])c2)c1` [Example 184, 3-(3-Hexyloxyphenyl)-2-furancarboxylic acid 2-(4-hydroxy-3-nitrobenzoyl)hydrazide] yielded an IC50 [1] of 59 nM, an IC50 [2] of 18 nM and a melting point of 124 to 126 °C.
Compound `CCCCCCCOc1cccc(-c2ccoc2C(=O)NNC(=O)c2ccc(O)c([N+](=O)[O-])c2)c1` [Example 185, 3-(3-Heptyloxyphenyl)-2-furancarboxylic acid 2-(4-hydroxy-3-nitrobenzoyl)hydrazide] has an IC50 [1] of 23 nM, an IC50 [2] of 20 nM and a melting point of 141 to 144 °C.
With `CCCCCCc1cccc(-c2ccoc2C(=O)NNC(=O)c2ccc(O)c([N+](=O)[O-])c2)c1` [Example 188, 3-(3-Hexylphenyl)-2-furancarboxylic acid 2-(4-hydroxy-3-nitrobenzoyl)hydrazide] the IC50 [1] was 28 nM, the IC50 [2] was 26 nM and the melting point was 87 to 89 °C.
With `O=C(NNC(=O)c1occc1-c1cccc(Cc2ccccc2)c1)c1ccc(O)c([N+](=O)[O-])c1` [Example 189, 3-(3-Benzylphenyl)-2-furancarboxylic acid 2-(4-hydroxy-3-nitrobenzoyl)hydrazide] the IC50 [1] was 3 nM, the IC50 [2] was 5.5 nM and the melting point was 160 to 162 °C.
`O=C(NNC(=O)c1occc1-c1ccccc1)c1ccc(O)c(C(F)(F)F)c1` [Example 193, 3-phenyl-2-furancarboxylic acid 2-(4-hydroxy-3-trifluoromethylbenzoyl)hydrazide] gave an IC50 [1] of 350 nM, an IC50 [2] of 330 nM and a melting point of 117 to 121 °C.
`CC(C)=CCOc1cccc(-c2ccoc2C(=O)NNC(=O)c2ccc(O)c([N+](=O)[O-])c2)c1` [Example 196, 3-[3-(3-Methyl-2-butenyloxy)phenyl]-2-furancarboxylic acid 2-(4-hydroxy-3-nitrobenzoyl)hydrazide] gave an IC50 [1] of 63 nM, an IC50 [2] of 40 nM and a melting point of 84 to 85 °C.
Work on `C=C(C)COc1cccc(-c2ccoc2C(=O)NNC(=O)c2ccc(O)c([N+](=O)[O-])c2)c1` [Example 197, 3-[3-(2-Methyl-2-propenyloxy)phenyl]-2-furancarboxylic acid 2-(4-hydroxy-3-nitrobenzoyl)hydrazide] yielded an IC50 [1] of 56 nM, an IC50 [2] of 37 nM and a melting point of 127 to 129 °C.
`CC=CCOc1cccc(-c2ccoc2C(=O)NNC(=O)c2ccc(O)c([N+](=O)[O-])c2)c1` [Example 198, 3-[3-(2-Butenyloxy)phenyl]-2-furancarboxylic acid 2-(4-hydroxy-3-nitrobenzoyl)hydrazide] showed an IC50 [1] of 20 nM, an IC50 [2] of 75 nM and a melting point of 113 to 115 °C.
With `C=CCOc1cccc(-c2ccoc2C(=O)NNC(=O)c2ccc(O)c([N+](=O)[O-])c2)c1` [Example 199, 3-[3-(2-Allyloxy)phenyl]-2-furancarboxylic acid 2-(4-hydroxy-3-nitrobenzoyl)hydrazide] the IC50 [1] was 75 nM, the IC50 [2] was 99 nM and the melting point was 126 to 131 °C.
`O=C(NNC(=O)c1occc1-c1cccc(OCc2cccc3ccccc23)c1)c1ccc(O)c([N+](=O)[O-])c1` [Example 203] showed an IC50 [1] of 7.7 nM, an IC50 [2] of 7.9 nM and a melting point of 152 to 153 °C.
`O=C(NNC(=O)c1occc1-c1cccc(OCc2ccc3ccccc3c2)c1)c1ccc(O)c([N+](=O)[O-])c1` [Example 204] showed an IC50 [1] of 5.4 nM, an IC50 [2] of 3.6 nM and a melting point of 198 to 199 °C.
`O=C(NNC(=O)c1occc1-c1ccc2[nH]ccc2c1)c1ccc(O)c([N+](=O)[O-])c1` [Example 207] showed an IC50 [1] of 9.5 nM, an IC50 [2] of 8 nM and a melting point of 129 to 131 °C.
Compound `Cn1ccc2cc(-c3ccoc3C(=O)NNC(=O)c3ccc(O)c([N+](=O)[O-])c3)ccc21` [Example 208] has an IC50 [1] of 270 nM, an IC50 [2] of 290 nM and a melting point of 185 to 187 °C.
Compound `O=C(NNC(=O)c1occc1-c1cccc(OCCc2ccccc2)c1)c1ccc(O)c([N+](=O)[O-])c1` [Example 209, 3-(3-phenethyloxyphenyl)-2-furancarboxylic acid 2-(4-hydroxy-3-nitrobenzoyl)hydrazide] has an IC50 [1] of 35 nM, an IC50 [2] of 20 nM and a melting point of 90 to 94 °C.
Work on `O=C(NNC(=O)c1occc1-c1ccc(Cc2ccccc2)cc1)c1ccc(O)c([N+](=O)[O-])c1` [Example 210, 3-(4-benzylphenyl)-2-furancarboxylic acid 2-(4-hydroxy-3-nitrobenzoyl)hydrazide] yielded an IC50 [1] of 7.9 nM, an IC50 [2] of 3.9 nM and a melting point of 154 to 157 °C.
With `Cc1ccc(COc2ccc(-c3ccoc3C(=O)NNC(=O)c3ccc(O)c([N+](=O)[O-])c3)cc2)cc1` [Example 211] the IC50 [1] was 25 nM, the IC50 [2] was 8.5 nM and the melting point was 184 to 185 °C.
Work on `Cc1ccccc1COc1ccc(-c2ccoc2C(=O)NNC(=O)c2ccc(O)c([N+](=O)[O-])c2)cc1` [Example 213] yielded an IC50 [1] of 80 nM, an IC50 [2] of 35 nM and a melting point of 177 to 179 °C.
Work on `Cc1cccc(COc2ccc(-c3ccoc3C(=O)NNC(=O)c3ccc(O)c([N+](=O)[O-])c3)cc2)c1` [Example 214] yielded an IC50 [1] of 39 nM, an IC50 [2] of 49 nM and a melting point of 162 to 164 °C.
For `O=C(NNC(=O)c1occc1-c1ccc2ccccc2c1)c1ccc(O)c([N+](=O)[O-])c1` [Example 217], the IC50 [1] was 37 nM, the IC50 [2] was 60 nM and the melting point was 135 to 139 °C.
In the case of `O=C(NNC(=O)c1occc1-c1cccc(-c2ccccc2)c1)c1ccc(O)c([N+](=O)[O-])c1` [Example 218], the IC50 [1] is reported as 56 nM, the IC50 [2] is reported as 95 nM and the melting point is reported as 143 to 147 °C.
With `O=C(NNC(=O)c1oc(Br)cc1-c1ccccc1)c1ccc(O)c([N+](=O)[O-])c1` [Example 222, 5-bromo-3-phenyl-2-furancarboxylic acid 2-(4-hydroxy-3-nitrobenzoyl)hydrazide] the IC50 [1] was 42 nM, the IC50 [2] was 25 nM and the melting point was 174 to 176 °C.
`Cc1cc(C)cc(COc2cccc(-c3ccoc3C(=O)NNC(=O)c3ccc(O)c([N+](=O)[O-])c3)c2)c1` [Example 223] showed an IC50 [1] of 26 nM, an IC50 [2] of 12 nM and a melting point of 178 to 180 °C.
For `Cc1cccc(C)c1COc1cccc(-c2ccoc2C(=O)NNC(=O)c2ccc(O)c([N+](=O)[O-])c2)c1` [Example 224], the IC50 [1] was 48 nM, the IC50 [2] was 27 nM and the melting point was 100 to 101 °C.
For `O=C(NNC(=O)c1occc1-c1cccc(Cc2ccccc2Cl)c1)c1ccc(O)c([N+](=O)[O-])c1` [Example 225], the IC50 [1] was 68 nM, the IC50 [2] was 11 nM and the melting point was 97 to 99 °C.
In the case of `CCOc1ccccc1Cc1cccc(-c2ccoc2C(=O)NNC(=O)c2ccc(O)c([N+](=O)[O-])c2)c1` [Example 226], the IC50 [1] is reported as 31 nM, the IC50 [2] is reported as 21 nM and the melting point is reported as 87 to 89 °C.
Compound `Cc1ccccc1Cc1cccc(-c2ccoc2C(=O)NNC(=O)c2ccc(O)c([N+](=O)[O-])c2)c1` [Example 229] has an IC50 [1] of 58 nM, an IC50 [2] of 28 nM and a melting point of 135 to 138 °C.
In the case of `CC(c1ccccc1)c1cccc(-c2ccoc2C(=O)NNC(=O)c2ccc(O)c([N+](=O)[O-])c2)c1` (stereo not drawn) [Example 230], the IC50 [1] is reported as 120 nM, the IC50 [2] is reported as 33 nM and the melting point is reported as 147 to 149 °C.
`O=C(NNC(=O)c1occc1-c1cccc(CCc2ccccc2)c1)c1ccc(O)c([N+](=O)[O-])c1` [Example 232] gave an IC50 [1] of 34 nM, an IC50 [2] of 38 nM and a melting point of 149 to 152 °C.
With `COc1ccc(Cc2cccc(-c3ccoc3C(=O)NNC(=O)c3ccc(O)c([N+](=O)[O-])c3)c2)cc1` [Example 234] the IC50 [1] was 56 nM, the IC50 [2] was 39 nM and the melting point was 102 to 104 °C.
Work on `Cc1cccc(Cc2cccc(-c3ccoc3C(=O)NNC(=O)c3ccc(O)c([N+](=O)[O-])c3)c2)c1` [Example 235] yielded an IC50 [1] of 18 nM, an IC50 [2] of 49 nM and a melting point of 149 to 151 °C.
Work on `Cc1ccc(-c2ccoc2C(=O)NNC(=O)c2ccc(O)c(C(F)(F)F)c2)cc1` [Example 240] yielded an IC50 [1] of 180 nM, an IC50 [2] of 300 nM and a melting point of 120 to 123 °C.
In the case of `CCCc1ccc(-c2ccoc2C(=O)NNC(=O)c2ccc(O)c(C(F)(F)F)c2)cc1` [Example 242], the IC50 [1] is reported as 180 nM, the IC50 [2] is reported as 89 nM and the melting point is reported as 112 to 114 °C.
`CCCCCOc1ccc(-c2ccoc2C(=O)NNC(=O)c2ccc(O)c(F)c2)cc1` [Example 243] gave an IC50 [1] of 290 nM, an IC50 [2] of 380 nM and a melting point of 103 to 106 °C.
Compound `O=C(NNC(=O)c1occc1-c1ccc(OCc2ccccc2)cc1)c1ccc(O)c([N+](=O)[O-])c1` [Example 245] has an IC50 [1] of 64 nM, an IC50 [2] of 29 nM and a melting point of 163 to 164 °C.
